Reference: patent US20090143279A1 (priority 2007, published 2009)
Like-named read-outs stand apart in the source and are kept apart here.

Tests used:
[1] = tested on: mitochondrial membrane potential; assay type: cell-based, mouse
reactive oxygen species = assay type: cell-based, mouse
OXPHOS gene expression = assay type: cell-based, mouse
nuOXPHOS transcripts = assay type: cell-based, mouse
mtOXPHOS transcripts = assay type: cell-based, mouse
cytochrome c = assay type: cell-based, mouse
[2] = tested on: cellular dehydrogenase activity
[3] = composite Z-score vs mock-treated (DMSO) wells, Conc 20 μM
[4] = composite Z-score vs DMSO wells, Conc 20 μM
[5] = 20 μM, composite Z-score vs DMSO
[6] = Conc 20 μM, normalized score vs mock-treated (DMSO) wells
[7] = normalized composite Z-score vs mock-treated (DMSO) wells, Conc 20 μM
[8] = composite Z-score vs DMSO, Conc 20 μM
[9] = composite Z-score vs mock-treated (DMSO) wells, concentration of each compound in μM
[10] = Table 7, C2C12 myotubes, 48 h, composite Z-score

Q: What does the source list for `COC(=O)[C@@]1(C)CCC[C@]2(C)c3ccc(O)c(C(C)C)c3CCC12` (stereo partly shown) [totarol-19-carboxylic acid, methyl ester]?
A: ΔΨm [1, 3]: −0.409; ROS (reactive oxygen species; [3]): 1.290; GE-HTS (OXPHOS gene expression; [3]): −0.323; nucOX (nuOXPHOS transcripts; [3]): −0.005; mitoOX (mtOXPHOS transcripts; [3]): −0.853; cyt c (cytochrome c; [3]): 0.085; Viability (C2C12 myotubes; [3]): −0.739; MTT [2, 3]: 1.019

Q: `CC[C@@]1(O)C[C@H](O[C@H]2C[C@H](N(C)C)[C@H](O)[C@H](C)O2)c2c(cc3c(c2O)C(=O)c2c(O)cccc2C3=O)[C@H]1C(=O)OC` [aklavine] was tested. Which ΔΨm [1, 4] did it give?
A: −3.626

Q: And the ROS (reactive oxygen species; [4])?
A: −2.347

Q: And the GE-HTS (OXPHOS gene expression; [4])?
A: 0.706

Q: What about the nucOX (nuOXPHOS transcripts; [4]) of the same compound?
A: 0.430

Q: And the mitoOX (mtOXPHOS transcripts; [4])?
A: 1.063

Q: And the cyt c (cytochrome c; [4])?
A: −5.658

Q: What about the Viability (C2C12 myotubes; [4]) of the same compound?
A: −2.971

Q: And the MTT [2, 4]?
A: −6.213

Q: With `COc1cc(-c2coc3cc(O[C@@H]4O[C@H](CO)[C@@H](O)[C@H](O)[C@H]4O)c(OC)c(O)c3c2=O)cc(O)c1OC` [iridin] as the compound, how does the ΔΨm [1, 3] read?
A: 0.076

Q: And the ROS (reactive oxygen species; [3])?
A: 0.927

Q: What about the GE-HTS (OXPHOS gene expression; [3]) of the same compound?
A: −0.755

Q: And the nucOX (nuOXPHOS transcripts; [3])?
A: −0.602

Q: And the mitoOX (mtOXPHOS transcripts; [3])?
A: −0.990

Q: And the cyt c (cytochrome c; [3])?
A: −0.474

Q: And the Viability (C2C12 myotubes; [3])?
A: −0.441

Q: What about the MTT [2, 3] of the same compound?
A: −1.958

Q: Which results are given for `Oc1c(Br)cc(Br)c2cccnc12` [broxyquinoline]?
A: ΔΨm [1, 5]: 1.701; ROS (reactive oxygen species; [5]): −1.081; GE-HTS (OXPHOS gene expression; [5]): −0.830; nucOX (nuOXPHOS transcripts; [5]): −1.095; mitoOX (mtOXPHOS transcripts; [5]): −0.157; cyt c (cytochrome c; [5]): 0.410; Viability (C2C12 myotubes; [5]): −2.006; MTT [2, 5]: −1.180

Q: For `CCOc1ccc(C(=O)C2=C(O)C(OC)C(O)(OC)C=C2)cc1` (stereo not shown), which “ΔΨm (composite Z-score)” value [1, 6] is on record?
A: 0.089

Q: And the “ROS (composite Z-score)” value (reactive oxygen species; [6])?
A: −0.264

Q: And the “GE-HTS (composite Z-score)” value (OXPHOS gene expression; [6])?
A: −1.530

Q: What about the “nucOX (composite Z-score)” value (nuOXPHOS transcripts; [6]) of the same compound?
A: −1.393

Q: And the “mitoOX (composite Z-score)” value (mtOXPHOS transcripts; [6])?
A: −1.568

Q: What about the “cyt c (composite Z-score)” value (cytochrome c; [6]) of the same compound?
A: 0.559

Q: And the “Viability (composite Z-score)” value (C2C12 myotubes; [6])?
A: −0.048

Q: What about the “MTT (composite Z-score)” value [2, 6] of the same compound?
A: −1.130

Q: What does the source list for `C[C@]12CC[C@H]3[C@@H](CC[C@]4(O)C[C@@H](O)CC[C@]34C=O)[C@@]1(O)CC[C@@H]2C1=CC(=O)OC1` [strophanthidin]?
A: ΔΨm [1]: −0.175; ΔΨm [1, 4]: −1.126; ΔΨm [1, 7]: −0.481; ROS (reactive oxygen species): 0.947; ROS (reactive oxygen species; [4]): 1.582; ROS (reactive oxygen species; [7]): 1.036; GE-HTS (OXPHOS gene expression): −0.590; GE-HTS (OXPHOS gene expression; [4]): −0.232; GE-HTS (OXPHOS gene expression; [7]): −0.789; nucOX (nuOXPHOS transcripts): −0.729; nucOX (nuOXPHOS transcripts; [4]): −0.222; nucOX (nuOXPHOS transcripts; [7]): −0.525; mitoOX (mtOXPHOS transcripts): −0.190; mitoOX (mtOXPHOS transcripts; [4]): −0.231; mitoOX (mtOXPHOS transcripts; [7]): −1.094; cyt c (cytochrome c): 0.287; cyt c (cytochrome c; [4]): 1.100; cyt c (cytochrome c; [7]): 0.687; Viability (C2C12 myotubes): −0.448; Viability (C2C12 myotubes; [4]): 0.028; Viability (C2C12 myotubes; [7]): −1.016; MTT [2]: −0.908; MTT [2, 4]: −0.828; MTT [2, 7]: −1.573

Q: For `C=C(C)[C@@H]1CC[C@]2(C(=O)O)CC[C@]3(C)[C@H](CC[C@@H]4[C@@]5(C)CC[C@H](O)C(C)(C)[C@@H]5CC[C@]43C)[C@@H]12` [betulinic acid], which ΔΨm [1, 8] is on record?
A: −1.220

Q: And the ROS (reactive oxygen species; [8])?
A: 0.202

Q: And the GE-HTS (OXPHOS gene expression; [8])?
A: 0.145

Q: What about the nucOX (nuOXPHOS transcripts; [8]) of the same compound?
A: 0.069

Q: And the mitoOX (mtOXPHOS transcripts; [8])?
A: 0.259

Q: And the cyt c (cytochrome c; [8])?
A: 0.481

Q: What about the Viability (C2C12 myotubes; [8]) of the same compound?
A: 0.850

Q: What about the MTT [2, 8] of the same compound?
A: −2.381

Q: For `C[C@H](C[C@@H](O)[C@@H]1OC1(C)C)[C@@H]1CC[C@]2(C)C3=CC[C@H]4C(C)(C)C(=O)CC[C@]4(C)[C@H]3CC[C@@]12C` (stereo in doubt) [niloticin], which ΔΨm [1, 3] is on record?
A: 0.461

Q: And the ROS (reactive oxygen species; [3])?
A: 0.817

Q: What about the GE-HTS (OXPHOS gene expression; [3]) of the same compound?
A: 0.543

Q: And the nucOX (nuOXPHOS transcripts; [3])?
A: 0.648

Q: And the mitoOX (mtOXPHOS transcripts; [3])?
A: 0.151

Q: And the cyt c (cytochrome c; [3])?
A: 0.136

Q: And the Viability (C2C12 myotubes; [3])?
A: 1.304

Q: What about the MTT [2, 3] of the same compound?
A: −0.481

Q: What does the source list for `C[C@H](CCC(=O)O)[C@H]1CC[C@H]2[C@@H]3CCC4CCCC[C@]4(C)[C@H]3C=C[C@]12C` (stereo partly shown) [chol-11-enic acid]?
A: ΔΨm [1, 7]: −0.652; ROS (reactive oxygen species; [7]): 0.737; GE-HTS (OXPHOS gene expression; [7]): −0.069; nucOX (nuOXPHOS transcripts; [7]): −0.195; mitoOX (mtOXPHOS transcripts; [7]): 0.246; cyt c (cytochrome c; [7]): 0.383; Viability (C2C12 myotubes; [7]): −0.456; MTT [2, 7]: −1.164

Q: For `COC(=O)CCC(=O)O[C@H]1CC[C@@]2(C)[C@@H](CC[C@@H]3[C@@H]2C(=O)C(O)[C@]2(C)[C@@H]4[C@H](C[C@@H]32)O[C@]2(CC[C@@H](C)CO2)[C@H]4C)C1` (stereo partly shown), which ΔΨm [1, 8] is on record?
A: −0.760

Q: What about the ROS (reactive oxygen species; [8]) of the same compound?
A: 0.918

Q: And the GE-HTS (OXPHOS gene expression; [8])?
A: −0.063

Q: What about the nucOX (nuOXPHOS transcripts; [8]) of the same compound?
A: 0.054

Q: And the mitoOX (mtOXPHOS transcripts; [8])?
A: −0.217

Q: And the cyt c (cytochrome c; [8])?
A: −0.005

Q: What about the Viability (C2C12 myotubes; [8]) of the same compound?
A: −0.315

Q: And the MTT [2, 8]?
A: −1.387

Q: How did the ΔΨm [1, 9] turn out when `COc1cc2c(cc1OC)-c1cc3ccc(OC)c(OC)c3c[n+]1CC2` [Palmatine, reference compound] was run?
A: −0.823

Q: What about the ROS (reactive oxygen species; [9]) of the same compound?
A: 0.511

Q: What about the GE-HTS (OXPHOS gene expression; [9]) of the same compound?
A: 1.822

Q: And the “nucOXPHOS Z” value (nuOXPHOS transcripts; [10])?
A: 1.64

Q: What about the nucOX (nuOXPHOS transcripts; [9]) of the same compound?
A: 1.636

Q: What about the “mito-OXPHOS Z” value (mtOXPHOS transcripts; [10]) of the same compound?
A: 1.83

Q: And the mitoOX (mtOXPHOS transcripts; [9])?
A: 1.833

Q: What about the cyt c (cytochrome c; [9]) of the same compound?
A: −0.084

Q: And the Viability (C2C12 myotubes; [9])?
A: −1.028

Q: What about the MTT [2, 9] of the same compound?
A: −1.222
